Source: ChEMBL document CHEMBL4673254, “Synthesis and Cytotoxicity Studies of Bioactive Benzofurans from Lavandula agustifolia and Modified Synthesis of Ailanthoidol, Homoegonol, and Egonol” (J Nat Prod, 2020)
Activity calls are given as the source filed them. The calls are words filed in the database; no cut-off is given here.

Tests used:
A549 [1] = assay: Cytotoxicity against human A549 cells assessed as reduction in cell viability at 1.25 to 20 uM after 72 hrs by Hoechst 33342 staining based assay; type: functional; settings: dose 1.25-20 µM
Hep 3B2 [2] = assay: Cytotoxicity against human Hep3B cells assessed as reduction in cell viability at 1.25 to 20 uM after 72 hrs by Hoechst 33342 staining based assay; type: functional; settings: dose 1.25-20 µM
MCF7 [3] = assay: Cytotoxicity against human MCF7 cells assessed as reduction in cell viability at 1.25 to 20 uM after 72 hrs by Hoechst 33342 staining based assay; type: functional; settings: dose 1.25-20 µM
PC-3 [4] = assay: Cytotoxicity against human PC-3 cells assessed as reduction in cell viability at 1.25 to 20 uM after 72 hrs by Hoechst 33342 staining based assay; type: functional; settings: dose 1.25-20 µM
HepG2 [5] = assay: Cytotoxicity against human HepG2 cells assessed as reduction in cell viability at 1.25 to 20 uM after 72 hrs by Hoechst 33342 staining based assay; type: functional; settings: dose 1.25-20 µM
Hep 3B2 [6] = assay: Induction of apoptosis in human Hep3B cells assessed as increase in cleaved PARP level at 6 uM after 72 hrs by Western blot analysis; type: functional, cell-based
MCF7 [7] = assay: Induction of apoptosis in human MCF7 cells assessed as increase in P53 protein expression at 6 uM after 72 hrs by Western blot analysis; type: functional, cell-based
A549 [8] = assay: Induction of apoptosis in human A549 cells assessed as increase in cleaved PARP level at 6 uM after 72 hrs by Western blot analysis; type: functional, cell-based
A549 [9] = assay: Induction of apoptosis in human A549 cells assessed as increase in P53 protein expression at 6 uM after 72 hrs by Western blot analysis; type: functional, cell-based
[10] = target: Cellular tumor antigen p53 (Homo sapiens) (UniProt P04637); assay: Activation of P53 in human A549 cells assessed as increase in P53 phosphorylation at ser15 residues at 6 uM after 72 hrs by Western blot analysis; type: cell-based; settings: filed as activator
Sequence of Cellular tumor antigen p53 (Homo sapiens) (P04637 whole entry, looked up): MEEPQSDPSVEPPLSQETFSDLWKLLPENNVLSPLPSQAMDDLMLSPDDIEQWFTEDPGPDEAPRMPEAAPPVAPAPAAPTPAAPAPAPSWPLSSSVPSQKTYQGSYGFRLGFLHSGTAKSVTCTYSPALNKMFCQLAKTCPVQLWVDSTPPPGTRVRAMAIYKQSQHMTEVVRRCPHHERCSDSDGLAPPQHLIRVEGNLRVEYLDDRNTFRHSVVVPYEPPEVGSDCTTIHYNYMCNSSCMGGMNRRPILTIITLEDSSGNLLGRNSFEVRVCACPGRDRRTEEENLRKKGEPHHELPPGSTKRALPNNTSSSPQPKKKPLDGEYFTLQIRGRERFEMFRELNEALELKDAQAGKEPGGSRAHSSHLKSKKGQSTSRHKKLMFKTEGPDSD

[11] = target: Cellular tumor antigen p53 (Homo sapiens) (UniProt P04637); assay: Activation of P53 in human MCF7 cells assessed as increase in P53 phosphorylation at ser15 residues at 6 uM after 72 hrs by Western blot analysis; type: cell-based; settings: filed as activator
[12] = target: Cellular tumor antigen p53 (Homo sapiens) (UniProt P04637); assay: Activation of P53 in human HepG2 cells assessed as increase in p21 protein expression at ser15 residues at 6 uM after 72 hrs by Western blot analysis; type: cell-based; settings: filed as activator
HepG2 [13] = assay: Induction of apoptosis in human HepG2 cells assessed as increase in cleaved PARP level at 6 uM after 72 hrs by Western blot analysis; type: functional, cell-based
[14] = tested on: Cellular tumor antigen p53 (Homo sapiens), P04637 [UNDEFINED MUTATION]; assay: Activation of P53 mutant in human PC-3 cells assessed as increase in p21 protein expression at ser15 residues at 6 uM after 72 hrs by Western blot analysis; type: cell-based; settings: filed as activator
Sequence of Cellular tumor antigen p53 (Homo sapiens), P04637 [UNDEFINED MUTATION] (P04637 whole entry, looked up, change not shown): as the sequence (P04637 whole entry, looked up) above

PC-3 [15] = assay: Induction of apoptosis in human PC-3 cells assessed as increase in P53 protein expression at 6 uM after 72 hrs by Western blot analysis; type: functional, cell-based
[16] = tested on: Cellular tumor antigen p53 (Homo sapiens), P04637 [UNDEFINED MUTATION]; assay: Activation of P53 mutant in human Hep3B cells assessed as increase in p21 protein expression at ser15 residues at 6 uM after 72 hrs by Western blot analysis; type: cell-based; settings: filed as activator
Hep 3B2 [17] = assay: Induction of apoptosis in human Hep3B cells assessed as increase in P53 protein expression at 6 uM after 72 hrs by Western blot analysis; type: functional, cell-based
HepG2 [18] = assay: Induction of apoptosis in human HepG2 cells assessed as increase in P53 protein expression at 6 uM after 72 hrs by Western blot analysis; type: functional, cell-based
PC-3 [19] = assay: Induction of apoptosis in human PC-3 cells assessed as increase in cleaved PARP level at 6 uM after 72 hrs by Western blot analysis; type: functional, cell-based
[20] = target: Cellular tumor antigen p53 (Homo sapiens) (UniProt P04637); assay: Activation of P53 in human MCF7 cells assessed as increase in p21 protein expression at ser15 residues at 6 uM after 72 hrs by Western blot analysis; type: cell-based; settings: filed as activator
[21] = tested on: Cellular tumor antigen p53 (Homo sapiens), P04637 [UNDEFINED MUTATION]; assay: Activation of P53 mutant in human PC-3 cells assessed as increase in P53 phosphorylation at ser15 residues at 6 uM after 72 hrs by Western blot analysis; type: cell-based
[22] = tested on: Cellular tumor antigen p53 (Homo sapiens), P04637 [UNDEFINED MUTATION]; assay: Activation of P53 mutant in human Hep3B cells assessed as increase in P53 phosphorylation at ser15 residues at 6 uM after 72 hrs by Western blot analysis; type: cell-based
MCF7 [23] = assay: Induction of apoptosis in human MCF7 cells assessed as increase in cleaved PARP level at 6 uM after 72 hrs by Western blot analysis; type: functional, cell-based
[24] = target: Cellular tumor antigen p53 (Homo sapiens) (UniProt P04637); assay: Activation of P53 in human A549 cells assessed as increase in p21 protein expression at ser15 residues at 6 uM after 72 hrs by Western blot analysis; type: cell-based; settings: filed as activator
[25] = Activation of P53 in human HepG2 cells assessed as increase in P53 phosphorylation at ser15 residues at 6 uM after 72 hrs by Western blot analysis; settings: filed as activator

Activity [10] | Activity [11] | Activity [12] | Activity [14] | Activity [16] | Activity [20] | Compound | Activity (A549 [1]) | Activity (Hep 3B2 [2]) | Activity (MCF7 [3]) | Activity (PC-3 [4]) | Activity (HepG2 [5]) | Activity (Hep 3B2 [6]) | Activity (MCF7 [7]) | Activity (A549 [8]) | Activity (A549 [9]) | Activity (HepG2 [13]) | Activity (PC-3 [15]) | Activity (Hep 3B2 [17]) | Activity (HepG2 [18]) | Activity (PC-3 [19]) | also measured
 |  |  |  |  |  | COc1ccc(-c2oc3c(OC)cc(CCO)cc3c2C)cc1 | inactive | inactive | inactive | inactive | inactive |  |  |  |  |  |  |  |  |  | 
Active | Active | Active | Active | Active | Active | COc1cc(CCO)cc2cc(-c3ccc(O)cc3)oc12 | Active | Active | Active | Active | Active | Active | Active | Active | Active | Active | inactive | inactive | Active | Active | Activity [21]: inactive; Activity [22]: inactive; Activity (MCF7 [23]): Active; Activity [24]: Active; Activity [25]: Active
 |  |  |  |  |  | COc1ccc(-c2cc3cc(CCO)c(OC)cc3o2)cc1 | inactive | inactive | inactive | inactive | inactive |  |  |  |  |  |  |  |  |  | 
 |  |  |  |  |  | COc1ccc(-c2oc3cc(OC)c(CCO)cc3c2C)cc1 | inactive | inactive | inactive | inactive | inactive |  |  |  |  |  |  |  |  |  | 
Active | Active | Active | Active | Active | Active | COc1cc2oc(-c3ccc(O)cc3)cc2cc1CCO | Active | Active | Active | Active | Active | Active | Active | Active | Active | Active | inactive | inactive | Active | Active | Activity [21]: inactive; Activity [22]: inactive; Activity (MCF7 [23]): Active; Activity [24]: Active; Activity [25]: Active
 |  |  |  |  |  | COc1cc2oc(-c3ccc(O)cc3)c(C)c2cc1CCO | Active | Active | Active | Active | Active |  |  |  |  |  |  |  |  |  | 
Active | Active | Active | Active | Active | Active | COc1cc(CCO)cc2c(C)c(-c3ccc(O)cc3)oc12 | Active | Active | Active | Active | Active | Active | Active | Active | Active | Active | inactive | inactive | Active | Active | Activity [21]: inactive; Activity [22]: inactive; Activity (MCF7 [23]): Active; Activity [24]: Active; Activity [25]: Active
 |  |  |  |  |  | COc1ccc(-c2cc3cc(CCO)cc(OC)c3o2)cc1 | inactive | inactive | inactive | inactive | inactive |  |  |  |  |  |  |  |  |  | 
